In patent publication US7118895B2, “Process for producing aglycon by using diglycosidase and flavor-improved food containing the aglycon and converting agent to be used in the process” (Amano Enzyme Inc., priority 2000, dated 2006):

Tested on: Crude diglycosidase
Assay: Examination of temperature in the conversion into isoflavone aglycons by diglycosidase using soybean materials
Assay type: biochemical, Penicillium multicolor IAM7153
Set-up: Decomposition efficiency of glycitin family in roasted soy flour / Decomposition efficiency of daidzin family in roasted soy flour / Decomposition efficiency of genistin family in soymilk / Decomposition efficiency of daidzin family in soymilk / Decomposition efficiency of glycitin family in defatted soybean / Decomposition efficiency of daidzin family in defatted soybean: concentration or dose not given beside the values
Procedure: Into 400 μL of 20 mM acetate buffer of pH 4.0 was suspended 50 mg of each of various soybean materials (roasted soy flour (manufactured by Fuji Shokuryo K.K.), soymilk (manufactured by Gitoh Shokuhin K.K.), defatted soybean (manufactured by Fuji Seiyu K.K.), concentrated soybean protein (manufactured by Fuji Seiyu K.K.)), whereby a substrate solution was prepared. Crude diglycosidase was diluted with 20 mM acetate buffer of pH 4.0 to be the glycosidase activity of 1.88 AU/mL. Fifty μL of the enzyme solution was mixed with the substrate solution and the whole was reacted at 80, 65, 55, 45, 37, or 30° C. at the total volume of 500 μL. To the reaction mixture was added 700 μL of ethanol after 0, 1, 3, and 6 hours of the reaction. After stirring and ultrasonication, the mixture was subjected to centrifugal separation at 15,000 rpm and 4° C. for 10 minutes. The supernatant was filtered through a filter and the existence of isoflavone glycosides and aglycon isoflavones contained in the reaction mixture was detected by HLPC.

[1] = 30° C., heat treatment of enzyme no, reaction time 0 h
[2] = 30° C., heat treatment of enzyme no, reaction time 1 h
[3] = 30° C., heat treatment of enzyme no, reaction time 3 h
[4] = 30° C., heat treatment of enzyme no, reaction time 6 h
[5] = 30° C., heat treatment of enzyme yes, reaction time 6 h
[6] = 45° C., heat treatment of enzyme no, reaction time 0 h
[7] = 45° C., heat treatment of enzyme no, reaction time 1 h
[8] = 45° C., heat treatment of enzyme no, reaction time 3 h
[9] = 45° C., heat treatment of enzyme no, reaction time 6 h
[10] = 45° C., heat treatment of enzyme yes, reaction time 6 h
[11] = 45 °C, heat treatment of enzyme: no, 0 h
[12] = 45 °C, heat treatment of enzyme: no, 1 h
[13] = 45 °C, heat treatment of enzyme: no, 3 h
[14] = 45 °C, heat treatment of enzyme: no, 6 h
[15] = 45 °C, heat treatment of enzyme: yes, 6 h
[16] = 55° C., heat treatment of enzyme no, reaction time 0 h
[17] = 55° C., heat treatment of enzyme no, reaction time 1 h
[18] = 55° C., heat treatment of enzyme no, reaction time 3 h
[19] = 55° C., heat treatment of enzyme no, reaction time 6 h
[20] = 55° C., heat treatment of enzyme yes, reaction time 6 h
[21] = 55 °C, heat treatment of enzyme: no, 0 h
[22] = 55 °C, heat treatment of enzyme: no, 1 h
[23] = 55 °C, heat treatment of enzyme: no, 3 h
[24] = 55 °C, heat treatment of enzyme: no, 6 h
[25] = 55 °C, heat treatment of enzyme: yes, 6 h
[26] = 65° C., heat treatment of enzyme no, reaction time 0 h
[27] = 65° C., heat treatment of enzyme no, reaction time 1 h
[28] = 65° C., heat treatment of enzyme no, reaction time 3 h
[29] = 65° C., heat treatment of enzyme no, reaction time 6 h
[30] = 65° C., heat treatment of enzyme yes, reaction time 6 h
[31] = 65 °C, heat treatment of enzyme: no, 0 h
[32] = 65 °C, heat treatment of enzyme: no, 1 h
[33] = 65 °C, heat treatment of enzyme: no, 3 h
[34] = 65 °C, heat treatment of enzyme: no, 6 h
[35] = 65 °C, heat treatment of enzyme: yes, 6 h
[36] = 80° C., heat treatment of enzyme no, reaction time 0 h
[37] = 80° C., heat treatment of enzyme no, reaction time 1 h
[38] = 80° C., heat treatment of enzyme no, reaction time 3 h
[39] = 80° C., heat treatment of enzyme no, reaction time 6 h
[40] = 80° C., heat treatment of enzyme yes, reaction time 6 h
[41] = 80 °C, heat treatment of enzyme: no, 0 h
[42] = 80 °C, heat treatment of enzyme: no, 1 h
[43] = 80 °C, heat treatment of enzyme: no, 3 h
[44] = 80 °C, heat treatment of enzyme: no, 6 h
[45] = 80 °C, heat treatment of enzyme: yes, 6 h

## CC(=O)OC[C@H]1O[C@@H](Oc2ccc3c(=O)c(-c4ccc(O)cc4)coc3c2)[C@H](O)[C@@H](O)[C@@H]1O [acetyldaidzin, 6″-O-acetyldaidzin]
[1]
  Decomposition efficiency of daidzin family in concentrated soybean protein: 44.6%
  Decomposition efficiency of daidzin family in defatted soybean: not detected
[2]
  Decomposition efficiency of daidzin family in concentrated soybean protein: 44.4%
  Decomposition efficiency of daidzin family in defatted soybean: not detected
[3]
  Decomposition efficiency of daidzin family in concentrated soybean protein: 43.9%
  Decomposition efficiency of daidzin family in defatted soybean: not detected
[4]
  Decomposition efficiency of daidzin family in concentrated soybean protein: 43.5%
  Decomposition efficiency of daidzin family in defatted soybean: not detected
[5]
  Decomposition efficiency of daidzin family in concentrated soybean protein: 42.3%
  Decomposition efficiency of daidzin family in defatted soybean: not detected
30 °C, heat treatment of enzyme: no, 0 h
  Decomposition efficiency of daidzin family in soymilk: not detected
30 °C, heat treatment of enzyme: no, 1 h
  Decomposition efficiency of daidzin family in soymilk: not detected
30 °C, heat treatment of enzyme: no, 3 h
  Decomposition efficiency of daidzin family in soymilk: not detected
30 °C, heat treatment of enzyme: no, 6 h
  Decomposition efficiency of daidzin family in soymilk: not detected
30 °C, heat treatment of enzyme: yes, 6 h
  Decomposition efficiency of daidzin family in soymilk: not detected
35 °C, heat treatment of enzyme: no, 0 h
  Decomposition efficiency of daidzin family in roasted soy flour: 47.8%
35 °C, heat treatment of enzyme: no, 1 h
  Decomposition efficiency of daidzin family in roasted soy flour: 46.9%
35 °C, heat treatment of enzyme: no, 3 h
  Decomposition efficiency of daidzin family in roasted soy flour: 45.3%
35 °C, heat treatment of enzyme: no, 6 h
  Decomposition efficiency of daidzin family in roasted soy flour: 39.6%
35 °C, heat treatment of enzyme: yes, 6 h
  Decomposition efficiency of daidzin family in roasted soy flour: 43.8%
[6]
  Decomposition efficiency of daidzin family in concentrated soybean protein: 44.5%
  Decomposition efficiency of daidzin family in defatted soybean: not detected
[7]
  Decomposition efficiency of daidzin family in concentrated soybean protein: 44.1%
  Decomposition efficiency of daidzin family in defatted soybean: not detected
[8]
  Decomposition efficiency of daidzin family in concentrated soybean protein: 41.5%
  Decomposition efficiency of daidzin family in defatted soybean: not detected
[9]
  Decomposition efficiency of daidzin family in concentrated soybean protein: 42.9%
  Decomposition efficiency of daidzin family in defatted soybean: not detected
[10]
  Decomposition efficiency of daidzin family in concentrated soybean protein: 0.0%
  Decomposition efficiency of daidzin family in defatted soybean: not detected
[11]
  Decomposition efficiency of daidzin family in roasted soy flour: 47.7%
  Decomposition efficiency of daidzin family in soymilk: not detected
[12]
  Decomposition efficiency of daidzin family in roasted soy flour: 42.9%
  Decomposition efficiency of daidzin family in soymilk: not detected
[13]
  Decomposition efficiency of daidzin family in roasted soy flour: 37.9%
  Decomposition efficiency of daidzin family in soymilk: not detected
[14]
  Decomposition efficiency of daidzin family in roasted soy flour: 28.5%
  Decomposition efficiency of daidzin family in soymilk: not detected
[15]
  Decomposition efficiency of daidzin family in roasted soy flour: 42.5%
  Decomposition efficiency of daidzin family in soymilk: not detected
[16]
  Decomposition efficiency of daidzin family in concentrated soybean protein: 44.5%
  Decomposition efficiency of daidzin family in defatted soybean: not detected
[17]
  Decomposition efficiency of daidzin family in concentrated soybean protein: 44.0%
  Decomposition efficiency of daidzin family in defatted soybean: not detected
[18]
  Decomposition efficiency of daidzin family in concentrated soybean protein: 40.6%
  Decomposition efficiency of daidzin family in defatted soybean: not detected
[19]
  Decomposition efficiency of daidzin family in concentrated soybean protein: 37.7%
  Decomposition efficiency of daidzin family in defatted soybean: not detected
[20]
  Decomposition efficiency of daidzin family in concentrated soybean protein: 42.3%
  Decomposition efficiency of daidzin family in defatted soybean: not detected
[21]
  Decomposition efficiency of daidzin family in roasted soy flour: 47.5%
  Decomposition efficiency of daidzin family in soymilk: not detected
[22]
  Decomposition efficiency of daidzin family in roasted soy flour: 42.8%
  Decomposition efficiency of daidzin family in soymilk: not detected
[23]
  Decomposition efficiency of daidzin family in roasted soy flour: 32.5%
  Decomposition efficiency of daidzin family in soymilk: not detected
[24]
  Decomposition efficiency of daidzin family in roasted soy flour: 26.7%
  Decomposition efficiency of daidzin family in soymilk: not detected
[25]
  Decomposition efficiency of daidzin family in roasted soy flour: 43.6%
  Decomposition efficiency of daidzin family in soymilk: not detected
[26]
  Decomposition efficiency of daidzin family in concentrated soybean protein: 44.6%
  Decomposition efficiency of daidzin family in defatted soybean: not detected
[27]
  Decomposition efficiency of daidzin family in concentrated soybean protein: 44.3%
  Decomposition efficiency of daidzin family in defatted soybean: not detected
[28]
  Decomposition efficiency of daidzin family in concentrated soybean protein: 42.9%
  Decomposition efficiency of daidzin family in defatted soybean: not detected
[29]
  Decomposition efficiency of daidzin family in concentrated soybean protein: 41.6%
  Decomposition efficiency of daidzin family in defatted soybean: not detected
[30]
  Decomposition efficiency of daidzin family in concentrated soybean protein: 43.6%
  Decomposition efficiency of daidzin family in defatted soybean: not detected
[31]
  Decomposition efficiency of daidzin family in roasted soy flour: 47.8%
  Decomposition efficiency of daidzin family in soymilk: not detected
[32]
  Decomposition efficiency of daidzin family in roasted soy flour: 43.7%
  Decomposition efficiency of daidzin family in soymilk: not detected
[33]
  Decomposition efficiency of daidzin family in roasted soy flour: 40.2%
  Decomposition efficiency of daidzin family in soymilk: not detected
[34]
  Decomposition efficiency of daidzin family in roasted soy flour: 37.8%
  Decomposition efficiency of daidzin family in soymilk: not detected
[35]
  Decomposition efficiency of daidzin family in roasted soy flour: 46.1%
  Decomposition efficiency of daidzin family in soymilk: not detected
[36]
  Decomposition efficiency of daidzin family in concentrated soybean protein: 44.5%
  Decomposition efficiency of daidzin family in defatted soybean: not detected
[37]
  Decomposition efficiency of daidzin family in concentrated soybean protein: 45.5%
  Decomposition efficiency of daidzin family in defatted soybean: not detected
[38]
  Decomposition efficiency of daidzin family in concentrated soybean protein: 44.7%
  Decomposition efficiency of daidzin family in defatted soybean: not detected
[39]
  Decomposition efficiency of daidzin family in concentrated soybean protein: 43.8%
  Decomposition efficiency of daidzin family in defatted soybean: not detected
[40]
  Decomposition efficiency of daidzin family in concentrated soybean protein: 42.3%
  Decomposition efficiency of daidzin family in defatted soybean: not detected
[41]
  Decomposition efficiency of daidzin family in roasted soy flour: 47.7%
  Decomposition efficiency of daidzin family in soymilk: not detected
[42]
  Decomposition efficiency of daidzin family in roasted soy flour: 49.1%
  Decomposition efficiency of daidzin family in soymilk: not detected
[43]
  Decomposition efficiency of daidzin family in roasted soy flour: 47.9%
  Decomposition efficiency of daidzin family in soymilk: not detected
[44]
  Decomposition efficiency of daidzin family in roasted soy flour: 46.7%
  Decomposition efficiency of daidzin family in soymilk: not detected
[45]
  Decomposition efficiency of daidzin family in roasted soy flour: 45.0%
  Decomposition efficiency of daidzin family in soymilk: not detected
